The results in this text go back to article PMC7855930, “Nontoxic Cobalt(III) Schiff Base Complexes with Broad‐Spectrum Antifungal Activity” (Chemistry (Weinheim an Der Bergstrasse, Germany), 2020).

The nature of data set [1]: Stability in water by 1H NMR (axial ligand exchange). It is filed as physicochemical. Particulars: room temperature. An excerpt: Because our previous results had shown that complexes bearing weak axial donors are more biologically active, we sought to synthesise a very labile Co^III‐bis(thiosemicarbazone) complex by using a weakly donating pyridine axial monodentate ligand. We were unable to synthesise a complex using unsubstituted pyridine, probably because it is a such a weak donor ligand that it will not remain bound to the Co^III center even briefly, preventing isolation of the complex. However, we were able to isolate a complex (3) bearing the more electron‐donating 4‐(dimethylamino)pyridine (DMAP) ligand in the axial positions. As expected, this complex is extremely labile. […] In our hands, the bis‐aqua complex could not be isolated.

For a further data set, the system named is CO-ADD bacterial panel. The data set is described as follows: CO-ADD bacterial panel, overall antibacterial activity. The class given is cell-based. As to conditions: CO‐ADD screening, Table S2. As for the experimental part: CO-ADD High Throughput Screening
Bacterial broth microdilution minimum inhibitory concentration (MIC) assay Bacterial strains were cultured in Cation-adjusted Mueller Hinton broth (CAMHB; Bacto Laboratories 212322) at 37 °C overnight. A sample of each culture was then diluted 40-fold in fresh CAMHB and incubated at 37 °C for 1.5-3 h. The resultant mid-log phase cultures were diluted with CAMHB (CFU/mL measured by OD600), then added to each well of the compound-containing plates (384-well non-binding surface (NBS) plates; Corning CLS3640), giving a cell density of 5 × 10^5 CFU/mL and a total volume of 50 µL. Plates were covered and incubated at 37 °C for 18 h without shaking. Inhibition of bacterial growth was determined measuring absorbance at 600 nm (OD600), using media only as negative control and bacteria without inhibitors as positive control. MIC values were determined as the lowest concentration at which the growth was inhibited at ≥ 80%. Colistin sulfate (Sigma C4461) and vancomycin HCl (Sigma 861987) were used as positive inhibitor controls on each plate for Gram-negative and Gram-positive bacteria, respectively.
Figure S1. 1H NMR (400 MHz) of [Co(ATS)(DMAP)2]NO3 (3) in DMSO-d6.
(1 picture or pasted object on this page, not shown here)

For `CC1=[N+]2N=C(N)[S][Co-3]23([n+]2ccc(N(C)C)cc2)([n+]2ccc(N(C)C)cc2)[S]C(N)=N[N+]3=C1C.O=[N+]([O-])[O-]` [Compound 3, [Co(ATS)(DMAP)2]NO3], the “Stability on dissolution in water” value in data set [1] (1H NMR, on dissolution) is “immediately yields a mixture of species”. In addition, in data set [1] (incubation overnight), the “Stability in water overnight” value is “totally converted into the bis‐aqua complex”. As to `O=[N+]([O-])[O-].[NH3+][Co-3]123([NH3+])[O]c4c(F)cccc4C=[N+]1c1ccccc1[N+]2=Cc1cccc(F)c1[O]3` [Compound 7, [Co(3F‐salophen)(NH3)2]NO3], the Antibacterial activity result in the data set on CO-ADD bacterial panel was “neither antibacterial nor antifungal activity”.
